Earlier results in US20250064782A1, “Methods of Treating Substance Use Disorders Using 5-MeO-DMT” (Journey Colab Corp., priority 2021, published 2025).

Legend:
[1] = rodents; Shen et al. 2011, Ermakova et al. 2022
[2] = system: IL-6; details: Uthaug et al. 2020

## COc1ccc2[nH]cc(CCN(C)C)c2c1 [5-MeO-DMT, 5-methoxy-N,N-dimethyltryptamine]
[1]
  pharmacokinetics of 5-MeO-DMT: Non-linear pharmacokinetics
[2]
  IL-6 levels post-administration: significantly decrease IL-6 levels
